Several values for one entry are separate records, joined by “and”; a condition that tells them apart may be missing. Equal entries are not always repeated.
What was measured:
[1] = Stability in human liver microsomes; format: in vitro ADME; details: 0.5 mg/mL pooled male microsomes, read-out: Intrinsic Clearance (Cl int) Liver Microsomes
Method: Memantine (1 μM) was incubated in 0.5 mg/mL of pooled male rat, mouse, or human liver microsomes (obtained commercially), in 0.1 M phosphate buffer at 37 °C. After pre-warming the mixture for 5 min, reactions were initiated by the addition of NADPH (1 mM). Aliquots (80 μL) were taken at 0, 5, 10, 20 and 40 min, and the reaction immediately terminated by adding into 80 μL of acetonitrile containing an analytical internal standard (IS). Samples were centrifuged and the supernatant fractions analyzed by LC-MS/MS with multiple reaction monitoring (MRM). All incubations were performed in duplicate. Testosterone was used as the positive control. The MRM area response ratio of the analyte over IS for Time=0(control) was set to 100%, the relative decrease in MRM area ratio intensity over time against that of the control (percent parent decrease) was used to determine the half-life (t1/2) of memantine in the incubation. Half-life values were calculated from the relationship:
t1/2 (min) = -0.693/λ, where λ is the slope of the Ln concentration vs time curve. The intrinsic clearance (Clint) was calculated as:
Clint = (0.693 x incubation volume (μL))/(t½ (min) x mg of microsomal protein)

human OCT1 = molecular target: T1, human OCT1 (Homo sapiens, UniProt O15245); assay: Indirect uptake transporter assay, OCT1; format: in vitro ADME
T1 construct: expressed in transfected cells; host or cells: CHO cells
T1 sequence (O15245 1-554): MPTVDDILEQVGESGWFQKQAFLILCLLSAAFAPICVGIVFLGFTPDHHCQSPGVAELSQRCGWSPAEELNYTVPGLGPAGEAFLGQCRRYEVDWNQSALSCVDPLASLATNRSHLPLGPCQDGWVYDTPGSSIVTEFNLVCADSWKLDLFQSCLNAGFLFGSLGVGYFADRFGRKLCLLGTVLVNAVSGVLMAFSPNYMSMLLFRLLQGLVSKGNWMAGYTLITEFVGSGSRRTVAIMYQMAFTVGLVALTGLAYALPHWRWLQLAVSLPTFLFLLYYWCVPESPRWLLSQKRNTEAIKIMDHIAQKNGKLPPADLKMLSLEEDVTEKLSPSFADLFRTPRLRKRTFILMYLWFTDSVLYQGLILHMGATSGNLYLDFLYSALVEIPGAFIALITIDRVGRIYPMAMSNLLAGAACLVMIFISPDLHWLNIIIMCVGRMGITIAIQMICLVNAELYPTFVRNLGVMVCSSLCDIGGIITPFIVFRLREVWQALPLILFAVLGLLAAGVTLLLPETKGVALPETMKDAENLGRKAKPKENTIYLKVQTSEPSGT
Source text: To determine whether memantine is an inhibitor of the human OATP2B1 (OATP-B), OCT1, OCT2, OAT3, PEPT1, PEPT2 uptake transporters. The standard uptake transporter assay is an indirect, inhibitory-type screening assay, performed with cold test article, which in this case was memantine. It provides information on any interaction (substrate or inhibitor) between selected uptake transporters and memantine that would affect the transport of the reporter compound. […] A radiolabeled reporter substrate is transported into the cells transfected with the selected human uptake transporter, and the inhibitory effect of memantine on the transport of this reporter substrate is measured. Values are presented on a relative scale; 100% defined as transport in the presence of the solvent and without memantine (no inhibition), and 0% defined as transport detected without transporter activity. IC50 is defined as the concentration required to inhibit the transport of the reporter substrate by 50%. […]
After the experiment cells were rinsed with 2 x 100µl of Krebs-Henseleit buffer and lysed with 50 µl of 0.1M NaOH. ^3H-estrone-3-sulfate, ^14C-TEA, ^14C-metformin and ^3H-Gly-Sar transport was determined by total radioactivity by transferring an aliquot (35µl) from each well to a vial containing liquid scintillant for analysis.

CC12CC3CC(C)(C1)CC(N)(C3)C2 [memantine]
microsomal CLint at 1 μM [1]: < 13.9 µL/min/mg
Maximal Inhibition (human OCT1; OCT1, up to 300 µM): ~94%
IC50 (human OCT1; OCT1, probe in Table 5: Gly-Sar (1.8 μM), methods and text: TEA): 3.5 µM and 3.51 µM

From PMC3269340, “Pharmacokinetics of memantine in rats and mice” (PLoS Currents, 2012)
